Data on two compounds can be found in PMC10537268 (Plants, 2023).

≈ marks a conversion by molar mass, not a printed value. Where “and” joins values, the source holds several entries; their conditions need not be identical. Equal entries are not always repeated.

For one data set, the system named is A549 cells. The experiment in a line: MTT cytotoxicity assay, A549. The format is cell-based. Conditions: Homo sapiens, A549, 24 h, read-out: IC50 A549 cytotoxicity. The protocol: (§1) Human breast cancer cell lines MCF7 (ATCC HTB-22), human prostate cancer cell lines PC3 (ATCC CRL-1435), human lung cancer cell lines A549 (ATCC CCL-185), and human embryonic kidney cell lines HEK293 (ATCC CRL-1573) were cultured in Dulbecco’s Modified Eagle’s Medium/High Glucose (DMEM, High Glucose) or Dulbecco’s Modified Eagle’s Medium/F12 (DMEM, F12) at 37 °C in a humidified 5% CO2 atmosphere. The media were supplemented with 10% fetal bovine serum (FBS), 1% (v/v) antibiotic-antimycotics solution (100 U/mL of penicillin, 100 μg/mL of streptomycin, and 0.25 μg/mL of amphotericin B), and 1% (v/v) non-essential amino acids.
(§2) Cells were cultured for 24 h in 96-well plates containing 10^5 cells per well before exposure. The essential oils and geraniol were dissolved in DMSO (<1%) and diluted with respective medium for use in MTT assay (0.1–2000 µg/mL concentration range). After incubation, the […] and washed with D-PBS followed by addition of MTT (30 µL). After a 4 h incubation period, 150 µL of DMSO was added and mixed using a shaker at 25 °C. This was followed by measurement of the absorbances a 540 nm using the microplate reader. All experiments were performed in triplicate.

The target in another data set is T1, COX-1 (Ovis aries, UniProt P05979).
T1 construct: purchased Cayman Chemical Company 700100
T1 sequence (P05979 25-600): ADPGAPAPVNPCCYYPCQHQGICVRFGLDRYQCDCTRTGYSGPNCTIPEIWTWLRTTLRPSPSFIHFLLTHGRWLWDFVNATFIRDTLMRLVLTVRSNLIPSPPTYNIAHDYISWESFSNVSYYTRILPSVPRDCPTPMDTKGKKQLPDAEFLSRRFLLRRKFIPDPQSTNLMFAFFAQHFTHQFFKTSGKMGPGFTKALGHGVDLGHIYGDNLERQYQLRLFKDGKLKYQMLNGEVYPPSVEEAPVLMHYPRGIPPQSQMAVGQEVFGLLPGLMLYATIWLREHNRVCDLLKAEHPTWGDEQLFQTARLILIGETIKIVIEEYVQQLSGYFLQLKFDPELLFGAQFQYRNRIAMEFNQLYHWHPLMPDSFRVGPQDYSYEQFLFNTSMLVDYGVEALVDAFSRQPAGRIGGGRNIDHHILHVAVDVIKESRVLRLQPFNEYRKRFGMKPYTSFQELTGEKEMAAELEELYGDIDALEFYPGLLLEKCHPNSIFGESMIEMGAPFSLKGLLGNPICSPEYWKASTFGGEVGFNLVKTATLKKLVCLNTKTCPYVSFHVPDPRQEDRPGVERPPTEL
Briefly: COX-1 fluorometric inhibitory screening assay kit. The format is biochemical, Ovine. On the procedure: (§3) The essential oils and geraniol were tested using a commercial COX-1 (Ovine), COX-2 (Human recombinant), and fluorometric inhibitory screening assay kit following the instructions recommended by the manufacturer (Cayman test kit 700100, Cayman Chemical Company, Ann Arbor, MI, USA). Briefly, 150 µL of assay buffer (0.1 M Tris-HCl pH 8.0), 10 µL of Heme, 10 µL of enzyme (COX-1 or COX-2), and 10 µL of the test sample were added to the wells. After 5 min at 25 °C, 10 µL of ADHP (10-acetyl-3 7-dihydroxy phenoxazine) and 10 µL of arachidonic acid were added to initiate the reaction. The plate was incubated at room temperature for 2 min followed by fluorescence measured at 530 nm (excitation) and 585 nm (emission). Stock solution of the essential oils was prepared with DMSO 1%. The triplicate experimental data are expressed as mean ± standard deviation (SD). For the percentage inhibition (%I) calculations, the formula below was used:t% I = [(Initial Activity − Sample Activity)/Initial Activity] × 100

The next data set concerns the target T2, AChE (Electrophorus electricus, UniProt O42275).
T2 construct: purchased Sigma Aldrich
Briefly: Anticholinesterase activity, modified Ellman method (AChE). The format is biochemical. On the procedure:
Cholinesterase inhibition was determined spectrophotometrically through the modified Ellman method. Ethanol was used as negative control. Sodium phosphate buffer, AChE enzyme stock solution, the essential oils, and geraniol were mixed and allowed to incubate for 30 min at room temperature DTNB and acetylthiocholine were added to initiate the enzyme reaction.
A general note: DTNB colorimetry detects thiols as they appear.

The target of a further data set is T3, COX-2 (Homo sapiens, UniProt P35354).
T3 sequence (P35354 18-604): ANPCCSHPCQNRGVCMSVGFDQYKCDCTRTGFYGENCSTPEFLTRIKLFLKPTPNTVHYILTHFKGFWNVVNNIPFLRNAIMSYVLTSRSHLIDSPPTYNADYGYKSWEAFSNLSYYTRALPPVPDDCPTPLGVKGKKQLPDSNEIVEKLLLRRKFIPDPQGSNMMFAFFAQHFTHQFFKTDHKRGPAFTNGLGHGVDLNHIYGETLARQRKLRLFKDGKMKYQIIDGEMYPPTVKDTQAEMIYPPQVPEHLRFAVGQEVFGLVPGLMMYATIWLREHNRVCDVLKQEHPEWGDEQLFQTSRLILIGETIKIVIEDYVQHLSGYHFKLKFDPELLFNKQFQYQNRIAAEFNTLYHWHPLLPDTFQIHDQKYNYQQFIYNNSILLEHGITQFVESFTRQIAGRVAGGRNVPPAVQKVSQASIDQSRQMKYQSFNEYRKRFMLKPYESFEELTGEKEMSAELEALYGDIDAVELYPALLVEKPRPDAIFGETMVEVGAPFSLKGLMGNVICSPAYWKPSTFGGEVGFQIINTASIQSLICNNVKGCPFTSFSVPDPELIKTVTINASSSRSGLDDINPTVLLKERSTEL
The experiment in a line: biochemical. The protocol: as §3

A further data set addresses T4, ACE2 (Homo sapiens, UniProt Q9BYF1).
T4 construct: purchased BioVision K310
Briefly: ACE2 enzyme inhibition assay (BioVision kit). The format is biochemical. Conditions: read-out: ACE2 inhibition. On the procedure:
The ACE2 enzyme inhibition assay was performed using the commercially available kit (BioVision, UK, Catalog number: K310). Stock solutions of the test samples were prepared in DMSO (1%, v/v). Essential oils (20 μg/mL) and geraniol (5 μg/mL) were dispensed into a 96-well plate followed by addition of ACE2 enzyme solution (blank excluded). The reaction was started by adding 40 µL of substrate solution to each well. The reaction mixture was measured at Ex/Em = 320/420 nm wavelength using the SpectraMax i3, fluorescent microplate reader (Molecular Devices, CA, USA). The results are reported as % inhibition values, which were obtained for all samples from triplicate experiments.

The subject of a further data set is PC3 cells. The experiment in a line: MTT cytotoxicity assay, PC3. The note with it: Homo sapiens, PC-3, 24 h, read-out: IC50 PC3 cytotoxicity. The format is cell-based. The protocol: as §1, §2
(In general: Tetrazolium dyes change colour on reduction, which living cells bring about.)

Data set [1] can be described thus: MTT cytotoxicity assay, HEK293. In kind it is cell-based. The note with it: human, HEK293 cells, healthy cell line, ND: Not detected. On the procedure:
as §1, §2

A further data set deals with MCF7 cells. The experiment in a line: MTT cytotoxicity assay, MCF7. The format is cell-based. The note with it: Homo sapiens, MCF7, 24 h, read-out: IC50 MCF7 cytotoxicity. The protocol:
as §1, §2

Where [2] appears, read: human recombinant COX-2, fluorometric kit.

T4 sequence (Q9BYF1 18-805): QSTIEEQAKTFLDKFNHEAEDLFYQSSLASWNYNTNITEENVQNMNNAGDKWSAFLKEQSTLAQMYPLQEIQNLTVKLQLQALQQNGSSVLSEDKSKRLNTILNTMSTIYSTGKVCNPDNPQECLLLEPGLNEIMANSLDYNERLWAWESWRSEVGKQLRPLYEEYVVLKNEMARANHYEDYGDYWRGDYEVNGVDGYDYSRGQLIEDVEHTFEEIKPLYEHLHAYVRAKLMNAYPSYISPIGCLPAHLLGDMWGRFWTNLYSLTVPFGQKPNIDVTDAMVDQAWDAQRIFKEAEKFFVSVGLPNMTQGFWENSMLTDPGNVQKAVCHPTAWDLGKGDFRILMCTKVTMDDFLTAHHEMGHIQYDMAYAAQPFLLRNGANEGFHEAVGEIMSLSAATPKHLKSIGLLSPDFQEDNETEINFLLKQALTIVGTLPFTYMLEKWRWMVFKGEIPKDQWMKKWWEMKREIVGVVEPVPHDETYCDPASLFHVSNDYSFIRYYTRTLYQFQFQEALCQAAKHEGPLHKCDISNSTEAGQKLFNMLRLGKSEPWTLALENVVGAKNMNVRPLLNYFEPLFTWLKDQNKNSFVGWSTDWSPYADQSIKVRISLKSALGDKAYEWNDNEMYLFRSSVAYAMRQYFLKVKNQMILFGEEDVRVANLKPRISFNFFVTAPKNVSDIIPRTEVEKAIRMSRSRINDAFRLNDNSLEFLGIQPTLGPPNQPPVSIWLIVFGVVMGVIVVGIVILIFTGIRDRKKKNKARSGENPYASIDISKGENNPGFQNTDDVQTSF
T2 sequence (O42275 24-633): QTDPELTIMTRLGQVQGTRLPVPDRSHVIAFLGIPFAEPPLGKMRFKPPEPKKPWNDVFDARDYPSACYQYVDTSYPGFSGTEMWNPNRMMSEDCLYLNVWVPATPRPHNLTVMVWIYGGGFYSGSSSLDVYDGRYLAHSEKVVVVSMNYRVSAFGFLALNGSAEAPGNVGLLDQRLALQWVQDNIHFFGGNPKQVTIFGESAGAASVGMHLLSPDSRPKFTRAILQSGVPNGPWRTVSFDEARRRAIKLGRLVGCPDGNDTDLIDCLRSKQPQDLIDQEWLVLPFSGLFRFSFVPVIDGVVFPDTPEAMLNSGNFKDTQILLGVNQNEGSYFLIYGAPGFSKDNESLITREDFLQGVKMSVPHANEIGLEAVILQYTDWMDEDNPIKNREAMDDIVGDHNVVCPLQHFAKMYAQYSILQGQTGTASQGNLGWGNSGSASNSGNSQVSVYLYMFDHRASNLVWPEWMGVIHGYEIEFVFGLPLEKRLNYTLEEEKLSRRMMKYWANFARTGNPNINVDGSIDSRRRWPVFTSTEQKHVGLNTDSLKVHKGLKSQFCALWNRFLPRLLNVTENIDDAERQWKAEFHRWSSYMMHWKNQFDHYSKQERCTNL

On to `CC(C)=CCC/C(C)=C/CO` [Geraniol], for which the 50% inhibitory concentration (IC50) (as a rule, the concentration at which inhibition is half-maximal) was 58.9 ± 1.09 µg/mL (≈ 382 µM) in the data set with A549 cells; 71.3 µM and 72.4 µM on COX-1 (IC50 COX-1, ovine COX-1, fluorometric kit); 109 µM against AChE; 52.5 µM and 52.6 µM on COX-2 (setting [2]); 77 ± 2.06 µg/mL (≈ 499 µM) in the data set on PC3 cells; 42.8 ± 1.48 µg/mL (≈ 278 µM) in the data set with MCF7 cells. For the same compound, the “SI (selectivity index)” value on COX-2 (COX-2 versus COX-1 IC50) worked out at 0.72. Further, the inhibition (as a rule, the change of the read-out against control, counted positive when it falls) at 5 µg/mL at ACE2 turned out to be 86.3%. This compound came in with an IC50 at 24 h in data set [1] of 81.8 ± 1.98 µg/mL (≈ 530 µM).
Regarding `CC(Cc1ccc(O)c(O)c1)C(C)Cc1ccc(O)c(O)c1` (centres unmarked) [Nordihydroguaretic Acid, Nordihydroguaiaretic acid, reference compound], the “IC50 COX-1” value against COX-1 (ovine COX-1, fluorometric kit) came to 7.1 µg/mL (≈ 23.5 µM). The “IC50 COX-2” value at COX-2 (setting [2]) is listed as 9.1 µg/mL.
